Measured values from PubChem BioAssay (NCI).
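Each compound was tested at five concentrations against cells in 96-well plates for 48 hours. TGI is the concentration that stops growth completely.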

Key:
Test in all cases: NCI-60 cell line screen, 48 h
[1] = system: RPMI-8226 leukemia
[2] = system: HCT-116 colon
[3] = system: SK-OV-3 ovarian
[4] = system: BT-549 breast
[5] = system: NCI-H522 lung
[6] = system: EKVX NSCLC
[7] = system: K-562 leukemia
[8] = system: U251 CNS
[9] = system: SW-620 colon
[10] = system: PC-3 prostate

| Compound | TGI [1] | TGI [2] | TGI [3] | TGI [4] | TGI [5] | TGI [6] | TGI [7] | TGI [8] | TGI [9] | TGI [10] |
| --- | --- | --- | --- | --- | --- | --- | --- | --- | --- | --- |
| O=C1N2CCC[C@H]2CS1(=O)=O | 10.8 µM | 28.1 µM | > 100 µM | 30.2 µM | 18.5 µM | 44.4 µM | 32.1 µM | 30 µM | 42.1 µM | 31.4 µM |
| O=c1cc(-c2ccccc2)oc2c1ccc1[nH]c3ccccc3c(=O)c12 | > 100 µM | > 100 µM | > 100 µM | > 100 µM | > 100 µM | > 100 µM | > 100 µM | > 100 µM | > 100 µM | > 100 µM |
| CC(OP(=O)(O)O)C(N)C(=O)O (stereo not given) | > 100 µM | > 100 µM | > 100 µM | > 100 µM | > 100 µM | > 100 µM | > 100 µM | > 100 µM | > 100 µM | > 100 µM |
| O=C1c2ccccc2C2(c3ccc(F)cc3)NCCN12 (stereo not given) | > 100 µM | > 100 µM | > 100 µM | > 100 µM | > 100 µM | > 100 µM | > 100 µM | > 100 µM | > 100 µM | > 100 µM |
| Cc1cc(C)nc(NS(=O)(=O)c2ccc(NNc3c4ccccc4nc4c(C(=O)Nc5ccc(S(=O)(=O)Nc6cc(C)on6)cc5)cccc34)cc2)n1 | > 100 µM | > 100 µM | > 100 µM | > 100 µM | 82.1 µM | 65.7 µM | 87.2 µM | 79.2 µM | > 100 µM | > 100 µM |
| Cc1nc(C)c(N2CCN(CN)CC2)c(=O)[nH]1 | > 100 µM | > 100 µM | > 100 µM | > 100 µM | > 100 µM | > 100 µM | > 100 µM | > 100 µM | > 100 µM | > 100 µM |
| Oc1ccc2ccccc2c1OCc1nnc(CCCCCCCCc2nnc(COc3c(O)ccc4ccccc34)n2Nc2ccccc2)n1Nc1ccccc1 | > 100 µM | 26 µM | > 100 µM | 77.7 µM | 26.6 µM | > 76.8 µM | > 100 µM | > 58.9 µM | > 100 µM | > 100 µM |
| CC(C)(C)c1cc(OCc2nnc3sc(Cc4ccccc4)nn23)c(Cl)cc1OCc1nnc2sc(Cc3ccccc3)nn12 | > 100 µM | 75.2 µM | > 100 µM | 96.9 µM | > 100 µM | > 100 µM | > 100 µM | 34.6 µM | > 100 µM | > 100 µM |
| CC(c1ccccc1)n1cncc1C(=O)NN1CCN(C)CC1 (stereo not given) | > 10 µM | > 10 µM | > 10 µM | > 10 µM | > 10 µM | > 10 µM | > 10 µM | > 10 µM | > 10 µM | > 10 µM |
| COc1cccc2c1OC1c3ccccc3OCC1(O)C2 (stereo not given) | > 100 µM | > 100 µM | > 100 µM | > 100 µM | > 100 µM | > 100 µM | > 100 µM | > 100 µM | > 100 µM | > 100 µM |
| COc1ccc(OC)c2c(C)ccnc12 | > 100 µM | > 100 µM | > 100 µM | > 100 µM | 21.8 µM | > 100 µM | > 100 µM | > 100 µM | > 85.6 µM | > 100 µM |
| COc1c(C)c(C/C=C(\C)CCCC(C)CCCC(C)CCCC(C)C)c(OC)c2ccccc12 (stereo not given) | > 100 µM | > 100 µM | > 100 µM | > 100 µM | > 100 µM | > 100 µM | > 100 µM | > 100 µM | > 100 µM | > 100 µM |
| COc1ccc(/C=C2\CCCc3ccccc3C2=O)cc1 | 21.5 µM | 20.5 µM | > 60.6 µM | 17.3 µM | 1.71 µM | > 100 µM | > 100 µM | 35.1 µM | > 100 µM | > 100 µM |
| CCOC(=O)CCc1cn2cc(Br)nc(OC)c2n1 | > 100 µM | > 100 µM | > 100 µM | > 100 µM | > 100 µM | > 100 µM | > 100 µM | > 100 µM | > 100 µM | > 100 µM |
| O=C1Nc2cccc(Cl)c2/C1=C\c1c(-c2ccccc2)nc2n1CCS2 | 52.9 µM | 54.6 µM | 65.9 µM | 76.5 µM | > 100 µM | 74.7 µM | 55.1 µM | 47.4 µM | 35.2 µM | 41.8 µM |
| O=c1cc(N2CCOCC2)n2c(ccc3ccccc32)n1 | > 100 µM | > 100 µM | > 100 µM | > 100 µM | > 100 µM | > 100 µM | > 100 µM | > 100 µM | > 100 µM | > 100 µM |
| CSc1nnc(SCc2nn3c(=O)cc(C)nc3s2)s1 | > 100 µM | > 100 µM | > 100 µM | > 100 µM | > 100 µM | > 100 µM | > 100 µM | > 100 µM | > 100 µM | > 100 µM |
| O=C1C=CC(=O)c2c(O)c(N3CCOCC3)c(Cl)c(O)c21 | > 10 µM | 0.403 µM | 6.22 µM | 0.329 µM | 0.83 µM | 2.79 µM | > 10 µM | 2.62 µM | 0.351 µM | 1.56 µM |
| Cc1ccc(S(=O)(=O)OCCC2CN(C(=O)OCc3ccccc3)C(C)(C)O2)cc1 (stereo not given) | 32.4 µM | > 100 µM | > 100 µM | 5.97 µM | 20.1 µM | > 100 µM | > 100 µM | > 100 µM | > 100 µM | 50 µM |
| Oc1cccc2c(Br)ccnc12 | 4.72 µM | 12.2 µM | 66.8 µM | > 45.7 µM | 17.1 µM | 11.6 µM | > 22.5 µM | 20.4 µM | 16.7 µM | 38.1 µM |
| Clc1ccc(-c2nn3c(COc4cccc(OCc5nnc6sc(-c7ccc(Cl)cc7)nn56)c4)nnc3s2)cc1 | > 100 µM | 44.7 µM | > 100 µM | > 100 µM | 55.3 µM | 56.8 µM | > 100 µM | 61.3 µM | > 100 µM | > 100 µM |
| Cc1cc(S(=O)(=O)Nc2nc3cscc3c(=O)n2N)c(S)cc1Cl | > 100 µM | > 100 µM | > 100 µM | > 100 µM | 77.9 µM | > 100 µM | > 100 µM | > 100 µM | > 100 µM | > 100 µM |
| COc1cccc(NC(=O)CC(=O)n2nc(-c3ccccc3)c(N=Nc3ccc(Cl)cc3)c2-c2ccccc2)c1 | > 100 µM | 67 µM | > 79.9 µM | 58.6 µM | 59.8 µM | 92.8 µM | > 78 µM | 77.9 µM | > 100 µM | > 100 µM |
| NC1CCCCC1NCCNC1CCCCC1N (stereo not given) | > 100 µM | > 100 µM | > 100 µM | > 100 µM | > 100 µM | > 100 µM | > 100 µM | > 100 µM | > 100 µM | > 100 µM |
| CC(C)(C)OC(=O)C(C#N)C(=O)c1ccc(C(=O)O)[nH]1 (stereo not given) | > 100 µM | > 100 µM | > 100 µM | > 100 µM | > 100 µM | > 100 µM | > 100 µM | > 100 µM | > 100 µM | > 100 µM |
| O=C1C=CC2(O[C@H](C3CCCCC3)[C@@H](C3CCCCC3)O2)C(SC(=O)c2ccccc2)C1 (stereo not given in full) | 2.22 µM | 1.75 µM | 33.5 µM | 8.28 µM | 2.23 µM | 12.7 µM | 4.73 µM | 6.86 µM | 16.8 µM | 7.43 µM |
| CC(C)OP(=O)(OC(C)C)C(C(C)C)N(C)C(N)=NC#N (stereo not given) | > 100 µM | > 100 µM | > 100 µM | > 100 µM | > 100 µM | > 100 µM | > 100 µM | > 100 µM | > 100 µM | > 100 µM |
